A short description of data set [1]: Toxicity in Wistar rat assessed as prepulse inhibition of acoustic startle response at 0.3 mg/kg, ip measured for 10 mins by open field test relative to control. Conditions: in vivo. Type of data set: organism-based.
Data set [2] has as its target T1, Glutamate NMDA receptor; GRIN1/GRIN2A (Homo sapiens, UniProt Q05586+Q12879). In words: Inhibition of human GluN1a/GluN2A receptor expressed in HEK293 cells assessed as relative inhibition of glycine/glutamate-induced current at 100 uM measured at +40 mV holding potential by whole-cell patch clamp method. In kind it is cell-based.
The target in data set [3] is T2, Glutamate NMDA receptor; GRIN1/GRIN2B (Homo sapiens, UniProt Q05586+Q13224).
Description: Inhibition of human GluN1a/GluN2B receptor expressed in HEK293 cells assessed as relative inhibition of glycine/glutamate-induced current measured at +40 mV holding potential by whole-cell patch clamp method
Data set [4] concerns Rattus norvegicus. As to the kind of experiment: Reduction in total distance travelled in Wistar rat at 5 mg/kg, ip measured for 10 mins by open field test relative to control. In kind it is functional, organism-based.
Data set [5] has as its target T2, Glutamate NMDA receptor; GRIN1/GRIN2B. This is another data set of the same source.
Description: Inhibition of human GluN1a/GluN2B receptor expressed in HEK293 cells assessed as inhibition of glycine/glutamate-induced current measured at -60 mV holding potential by whole-cell patch clamp method
The nature of data set [6]: Drug uptake in ICR mouse brain at 5 mg/kg, ip measured after 15 mins by HPLC-MS analysis. In kind it is ADME, organism-based. The settings on record: read-out: Drug uptake.
The nature of data set [7]: Toxicity in Wistar rat assessed as hyperlocomotion at 5 mg/kg, ip measured for 10 mins by open field test relative to control. Type of data set: organism-based. Conditions: in vivo.
Data set [8] can be described thus: Drug uptake in ICR mouse plasma at 5 mg/kg, ip measured after 60 mins by HPLC-MS analysis. In kind it is ADME, organism-based.
Data set [9] is described as follows: Ratio of drug level in brain to plasma in ICR mouse at 5 mg/kg, ip measured after 15 mins by HPLC-MS analysis. Type of data set: ADME, organism-based. Conditions: brain and plasma, read-out: BBR.
In data set [10] the test system is Rattus norvegicus. In words: Effect on spontaneous locomotory activity in Wistar rat at 5 mg/kg, ip measured for 10 mins by open field test. Type of data set: functional, organism-based.
Another data set addresses Acetylcholinesterase (Homo sapiens, UniProt P22303).
Data set [11] addresses T1, Glutamate NMDA receptor; GRIN1/GRIN2A.
Description: Inhibition of human GluN1a/GluN2A receptor expressed in HEK293 cells assessed as relative inhibition of glycine/glutamate-induced current measured at +40 mV holding potential by whole-cell patch clamp method
Data set [12] can be described thus: Drug uptake in ICR mouse brain at 5 mg/kg, ip measured after 60 mins by HPLC-MS analysis. Type of data set: ADME, organism-based. The settings on record: read-out: Drug uptake.
Data set [13] can be described thus: Drug uptake in ICR mouse plasma at 5 mg/kg, ip measured after 15 mins by HPLC-MS analysis. In kind it is ADME, organism-based.
Data set [14] has as its system Rattus norvegicus. In words: Effect on spontaneous locomotory activity in Wistar rat at 1 mg/kg, ip measured for 10 mins by open field test. In kind it is functional, organism-based.
A further data set deals with Cholinesterase (Homo sapiens, UniProt P06276).
A short description of data set [15]: Toxicity in Wistar rat assessed as prepulse inhibition of acoustic startle response at 1 to 5 mg/kg, ip measured for 10 mins by open field test relative to control. Type of data set: organism-based. The settings on record: in vivo, dose 1-5 mg/kg.
Data set [16] concerns the target T1, Glutamate NMDA receptor; GRIN1/GRIN2A. The source holds these as a separate data set.
Description: Inhibition of human GluN1a/GluN2A receptor expressed in HEK293 cells assessed as inhibition of glycine/glutamate-induced current measured at -60 mV holding potential by whole-cell patch clamp method

Consider two compounds from ChEMBL document CHEMBL4814070 (Eur J Med Chem, 2021).

pIC50: −log10 of the molar value. The source made the active and inactive calls. The rule behind the calls is not given here.

What is called inhibition is how much of the control response was suppressed. Usually pIC50 stands for −log10 of the IC50, conventionally taken in molar units.

T2 sequence (Q13224 whole entry, looked up, other chains not shown): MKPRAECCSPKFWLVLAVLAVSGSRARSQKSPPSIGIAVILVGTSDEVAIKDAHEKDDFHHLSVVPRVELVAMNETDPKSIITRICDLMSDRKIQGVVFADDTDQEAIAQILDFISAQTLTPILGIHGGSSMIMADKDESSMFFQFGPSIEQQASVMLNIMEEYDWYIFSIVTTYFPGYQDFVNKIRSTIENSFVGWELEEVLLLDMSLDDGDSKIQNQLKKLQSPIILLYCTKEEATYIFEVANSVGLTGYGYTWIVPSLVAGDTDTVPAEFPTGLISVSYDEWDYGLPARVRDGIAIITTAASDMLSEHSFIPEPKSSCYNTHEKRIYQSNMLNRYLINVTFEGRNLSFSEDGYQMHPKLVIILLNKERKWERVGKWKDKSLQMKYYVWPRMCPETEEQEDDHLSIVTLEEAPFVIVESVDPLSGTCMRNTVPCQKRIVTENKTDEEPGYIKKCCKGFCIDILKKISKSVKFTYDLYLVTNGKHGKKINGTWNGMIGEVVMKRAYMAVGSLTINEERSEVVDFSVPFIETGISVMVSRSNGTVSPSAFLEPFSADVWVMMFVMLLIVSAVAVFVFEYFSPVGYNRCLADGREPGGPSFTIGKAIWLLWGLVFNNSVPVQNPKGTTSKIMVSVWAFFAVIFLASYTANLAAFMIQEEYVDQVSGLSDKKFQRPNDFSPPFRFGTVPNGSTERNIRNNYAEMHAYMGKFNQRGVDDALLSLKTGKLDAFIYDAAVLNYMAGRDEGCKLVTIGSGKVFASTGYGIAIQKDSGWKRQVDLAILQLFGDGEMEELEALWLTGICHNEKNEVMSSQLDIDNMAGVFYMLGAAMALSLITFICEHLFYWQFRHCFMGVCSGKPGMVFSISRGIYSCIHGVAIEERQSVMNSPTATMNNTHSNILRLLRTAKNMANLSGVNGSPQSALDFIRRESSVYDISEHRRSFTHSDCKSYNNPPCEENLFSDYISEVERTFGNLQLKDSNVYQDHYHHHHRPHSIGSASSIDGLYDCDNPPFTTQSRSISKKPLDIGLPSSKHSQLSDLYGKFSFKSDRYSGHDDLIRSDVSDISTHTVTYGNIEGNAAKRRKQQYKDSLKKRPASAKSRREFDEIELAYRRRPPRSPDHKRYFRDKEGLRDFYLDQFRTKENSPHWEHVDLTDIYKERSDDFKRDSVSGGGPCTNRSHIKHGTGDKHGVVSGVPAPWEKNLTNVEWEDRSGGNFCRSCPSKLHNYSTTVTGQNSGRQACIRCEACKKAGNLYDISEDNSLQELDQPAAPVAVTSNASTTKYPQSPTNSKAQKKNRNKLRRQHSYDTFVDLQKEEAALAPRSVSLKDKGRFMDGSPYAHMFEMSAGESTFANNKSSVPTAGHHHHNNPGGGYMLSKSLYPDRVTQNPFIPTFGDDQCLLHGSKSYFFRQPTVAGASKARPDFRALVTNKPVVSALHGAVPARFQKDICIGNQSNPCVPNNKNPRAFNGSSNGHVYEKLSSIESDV
Sequence of Cholinesterase (P06276 whole entry): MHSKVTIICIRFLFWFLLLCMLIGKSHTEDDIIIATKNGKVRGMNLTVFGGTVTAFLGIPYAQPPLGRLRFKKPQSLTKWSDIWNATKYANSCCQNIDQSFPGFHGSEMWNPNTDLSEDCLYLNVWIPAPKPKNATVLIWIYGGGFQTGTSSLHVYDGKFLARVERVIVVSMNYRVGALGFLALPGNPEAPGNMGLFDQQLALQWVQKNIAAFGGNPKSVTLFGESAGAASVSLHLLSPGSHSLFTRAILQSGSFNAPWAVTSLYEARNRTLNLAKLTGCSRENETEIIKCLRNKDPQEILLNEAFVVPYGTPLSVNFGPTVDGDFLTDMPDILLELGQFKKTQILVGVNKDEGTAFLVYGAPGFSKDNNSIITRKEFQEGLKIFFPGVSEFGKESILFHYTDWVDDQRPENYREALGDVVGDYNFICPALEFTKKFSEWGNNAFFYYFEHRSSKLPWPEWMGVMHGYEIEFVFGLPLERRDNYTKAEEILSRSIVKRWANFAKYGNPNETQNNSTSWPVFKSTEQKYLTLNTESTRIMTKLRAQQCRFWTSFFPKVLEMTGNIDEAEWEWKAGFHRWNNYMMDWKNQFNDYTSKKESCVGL
Sequence of Acetylcholinesterase (P22303 whole entry): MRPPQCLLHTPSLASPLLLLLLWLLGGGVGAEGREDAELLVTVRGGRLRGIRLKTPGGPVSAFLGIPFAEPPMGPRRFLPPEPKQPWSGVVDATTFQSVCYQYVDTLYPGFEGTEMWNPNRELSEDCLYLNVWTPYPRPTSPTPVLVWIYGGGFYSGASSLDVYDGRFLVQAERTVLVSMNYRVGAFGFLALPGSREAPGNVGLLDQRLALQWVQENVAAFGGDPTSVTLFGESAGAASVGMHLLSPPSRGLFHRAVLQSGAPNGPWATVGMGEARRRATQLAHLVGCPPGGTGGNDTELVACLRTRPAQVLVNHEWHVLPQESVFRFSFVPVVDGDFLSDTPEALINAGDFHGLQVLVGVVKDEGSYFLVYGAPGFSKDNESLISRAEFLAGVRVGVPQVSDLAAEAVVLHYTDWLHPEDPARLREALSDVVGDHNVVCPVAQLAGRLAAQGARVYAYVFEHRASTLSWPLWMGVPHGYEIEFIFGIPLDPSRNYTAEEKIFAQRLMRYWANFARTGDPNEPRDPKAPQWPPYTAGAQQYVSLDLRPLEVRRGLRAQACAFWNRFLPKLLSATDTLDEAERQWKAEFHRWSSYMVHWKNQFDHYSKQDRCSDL
Description for Acetylcholinesterase: Inhibition of human recombinant AChE assessed as reduction in cholinesterase activity using acetylthiocholine iodide as substrate by Ellman's method

Turning to `C[C@]12N[C@H](Cc3ccccc31)c1ccccc12` [DIZOCILPINE], the Activity result in data set [1] is listed as “Toxic”.
Take `Cl.Nc1c2c(nc3cccc(Cl)c13)CCCCC2`: the inhibition in [2] turned out to be 46.7%. Besides, the pIC50 in data set [3] was 3.83; in data set [5], 4.66; against Acetylcholinesterase it was 3.65; in [11], 3.95; against Cholinesterase it was 6.51; in [16], 5.14. In addition, in the data set on Rattus norvegicus [4], the result was Active. The values for the concentration at 0.25 h in [6] and in [13] were 762 nM and 2290 nM, respectively. Further, the Activity result in [7] was “Toxic”; in data set [15], “Non-Toxic”. Besides, the concentration at 1 h in [8] came to 185 nM; in data set [12], 32 nM. The Kp at 0.25 h in data set [9] was found to be 33. Moreover, the outcome in the data set on Rattus norvegicus [10] and in the data set with Rattus norvegicus [14] was inactive.
